According to paper PMC2677997 (Bioorganic & medicinal chemistry, 2009):

Molecular target: BoNT/A LC (BoNTA-LC 1-425) (Clostridium botulinum, UniProt P0DPI0)
Format: biochemical

BoNT/A LC (BoNTA-LC 1-425), sequence (P0DPI0 1-425 limits assumed): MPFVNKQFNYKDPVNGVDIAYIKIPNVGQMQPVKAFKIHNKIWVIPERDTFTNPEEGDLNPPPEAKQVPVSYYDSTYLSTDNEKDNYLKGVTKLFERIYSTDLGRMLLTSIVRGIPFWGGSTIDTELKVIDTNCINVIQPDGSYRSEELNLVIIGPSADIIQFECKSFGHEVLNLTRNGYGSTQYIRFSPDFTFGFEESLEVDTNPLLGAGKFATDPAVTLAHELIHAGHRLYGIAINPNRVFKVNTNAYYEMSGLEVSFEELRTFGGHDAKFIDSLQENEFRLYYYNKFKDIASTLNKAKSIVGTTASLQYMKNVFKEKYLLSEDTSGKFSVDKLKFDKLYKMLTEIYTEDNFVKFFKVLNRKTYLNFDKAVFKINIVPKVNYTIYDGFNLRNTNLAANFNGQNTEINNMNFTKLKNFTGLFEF

In the case of `CC(=O)Nc1cc(-c2ccc(Cl)cc2)n[nH]1` [Compound 7, N-(3-(4-Chlorophenyl)-1H-pyrazol-5-yl)acetamide], the “inhibitory activity” value is reported as “abolishes all activity”.
In the case of `O=C(CO)Nc1cc(-c2ccc(Cl)cc2)n[nH]1` [Compound 6, N-(3-(4-Chlorophenyl)-1H-pyrazol-5-yl)-2-hydroxyacetamide], the “inhibitory activity” value is reported as “abolishes all activity”.
